The record followed here is paper PMC7450057, “Enhancing intracellular accumulation and target engagement of PROTACs with reversible covalent chemistry” (Nature Communications, 2020).

The target in one data set is BTK (Homo sapiens, UniProt Q06187). In words: BTK degradation in MOLM-14 cells (western blot). The arrangement: endogenous in cells; host or cells: MOLM-14. The following applies: MOLM-14 cells, 200 nM, 24 h incubation. It is filed as cell-based. Background: In western blotting, separated proteins are transferred to a membrane and probed.
Chain of BTK (Q06187 whole entry): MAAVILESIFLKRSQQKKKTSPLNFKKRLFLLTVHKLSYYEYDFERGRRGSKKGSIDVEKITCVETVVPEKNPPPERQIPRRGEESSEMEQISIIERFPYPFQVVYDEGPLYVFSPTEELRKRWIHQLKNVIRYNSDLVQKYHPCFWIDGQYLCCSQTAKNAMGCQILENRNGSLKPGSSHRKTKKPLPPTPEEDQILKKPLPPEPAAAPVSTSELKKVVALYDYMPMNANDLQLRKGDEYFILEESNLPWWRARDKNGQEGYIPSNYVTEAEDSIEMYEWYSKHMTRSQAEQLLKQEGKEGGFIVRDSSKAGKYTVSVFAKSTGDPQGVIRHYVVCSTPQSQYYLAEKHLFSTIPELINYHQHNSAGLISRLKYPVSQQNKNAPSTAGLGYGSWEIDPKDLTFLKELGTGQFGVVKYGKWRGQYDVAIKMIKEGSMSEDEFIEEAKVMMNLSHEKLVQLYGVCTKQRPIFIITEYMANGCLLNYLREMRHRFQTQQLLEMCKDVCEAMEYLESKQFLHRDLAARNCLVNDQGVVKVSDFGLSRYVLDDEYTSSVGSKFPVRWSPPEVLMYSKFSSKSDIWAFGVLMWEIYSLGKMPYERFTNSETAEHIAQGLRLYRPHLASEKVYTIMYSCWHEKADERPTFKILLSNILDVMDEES
In the next data set the test system is MOLM-14 cells. In words: AlamarBlue cell viability assay, MOLM-14. The following applies: Supplementary Figure 7, replicates.

SMILES strings stand for the structures. “And” between values parts separate entries of the source, which are not always exact repeats. Equal values may be shown once.

For `CN(CCOCCOCCNC(=O)CNc1cccc2c1C(=O)N(C1CCC(=O)NC1=O)C2=O)C(C)(C)C=C(C#N)C(=O)N1CCC[C@@H](n2nc(-c3ccc(Oc4ccccc4)cc3)c3c(N)ncnc32)C1` (some centres unmarked) [RC-4], at BTK, the “Degradation at 200 nM (percentage of BTK degradation)” value was 43%. For the same molecule, the “Cell viability, MOML-14” value with MOLM-14 cells (drug concentration 1.00E-05 M) was 7.995 and 4.587 and 6.948 and 0.6662 and 4.873; in the data set with MOLM-14 cells (drug concentration 1.60E-08 M), 106.917 and 98.9797 and 102.749 and 88.7772 and 88.111; in the data set on MOLM-14 cells (drug concentration 2.00E-06 M), 23.0509 and 25.7918 and 22.8415 and 19.1107 and 18.6919; in the data set with MOLM-14 cells (drug concentration 3.20E-09 M) it was 98.1803 and 95.5954 and 92.3367 and 95.7248 and 84.8751; with MOLM-14 cells (drug concentration 4.00E-07 M), 68.7719 and 62.8902 and 62.3953 and 62.1669 and 56.6088; in the data set with MOLM-14 cells (drug concentration 6.40E-10 M) it was 92.8506 and 90.1858 and 94.6399 and 97.7806 and 77.071. In addition, the “Cell viability, MOML-14” value in the data set with MOLM-14 cells (drug concentration 8.00E-08 M) is 89.7861 and 80.8588 and 84.9703 and 89.1389 and 65.2315.

In the case of `CN(CCCNc1cccc2c1C(=O)N(C1CCC(=O)NC1=O)C2=O)C(C)(C)C=C(C#N)C(=O)N1CCCC(n2nc(-c3ccc(Oc4ccccc4)cc3)c3c(N)ncnc32)C1` (centres unmarked) [RC-8], the “Degradation at 200 nM (percentage of BTK degradation)” value at BTK came out at 15%. Also, the “Cell viability, MOML-14” value in the data set on MOLM-14 cells (drug concentration 1.00E-05 M) is 17.5563 and 16.7069 and 17.8914 and 20.4239 and 19.1771; in the data set on MOLM-14 cells (drug concentration 1.60E-08 M) it was 123.954 and 125.216 and 128.45 and 118.008 and 115.826; with MOLM-14 cells (drug concentration 2.00E-06 M), 51.2117 and 59.1288 and 59.5652 and 52.2481 and 61.4899; with MOLM-14 cells (drug concentration 3.20E-09 M), 109.039 and 133.593 and 120.962 and 127.936 and 128.38; with MOLM-14 cells (drug concentration 4.00E-07 M) it was 97.748 and 111.696 and 131.871 and 99.439 and 92.5349; in the data set with MOLM-14 cells (drug concentration 6.40E-10 M), 132.113 and 115.156 and 99.1818 and 117.969 and 130.757. The “Cell viability, MOML-14” value with MOLM-14 cells (drug concentration 8.00E-08 M) was 116.239 and 126.011 and 117.112 and 106.966 and 122.419.

For the molecule `CN(CCCNC(=O)COc1cccc2c1C(=O)N(C1CCC(=O)NC1=O)C2=O)C(C)(C)C=C(C#N)C(=O)N1CCC[C@@H](n2nc(-c3ccc(Oc4ccccc4)cc3)c3c(N)ncnc32)C1` (some centres unmarked) [RC-9], at BTK, the “Degradation at 200 nM (percentage of BTK degradation)” value is listed as 30%. Also, the “Cell viability, MOML-14” value with MOLM-14 cells (drug concentration 1.00E-05 M) is -0.2322 and -0.06633 and -0.1327 and -0.8823 and -0.4179; in the data set with MOLM-14 cells (drug concentration 1.60E-08 M), 85.6517 and 91.2637 and 79.403 and 91.5091 and 93.4859; in the data set on MOLM-14 cells (drug concentration 2.00E-06 M), 9.041 and 7.098 and 11.4959 and 8.756 and 8.279; with MOLM-14 cells (drug concentration 3.20E-09 M), 93.4859 and 94.8192 and 76.9154 and 100.657 and 77.1542; in the data set on MOLM-14 cells (drug concentration 4.00E-07 M), 42.6932 and 44.9353 and 60.7695 and 44.0464 and 46.4279; in the data set on MOLM-14 cells (drug concentration 6.40E-10 M) it was 113.612 and 82.5937 and 85.9834 and 109.612 and 104.358. Moreover, in the data set with MOLM-14 cells (drug concentration 8.00E-08 M), the “Cell viability, MOML-14” value was 79.6219 and 80.8756 and 76.0199 and 82.7728 and 91.7612.

As to `CN(CCCCNC(=O)CNc1cccc2c1C(=O)N(C1CCC(=O)NC1=O)C2=O)C(C)(C)C=C(C#N)C(=O)N1CCC[C@@H](n2nc(-c3ccc(Oc4ccccc4)cc3)c3c(N)ncnc32)C1` (some centres unmarked) [RC-2], the “Degradation at 200 nM (percentage of BTK degradation)” value on BTK stood at 49%. Moreover, the “Cell viability, MOML-14” value in the data set with MOLM-14 cells (drug concentration 1.00E-05 M) is 1.939 (2×) and 0.9797 and 1.263 and 1.918; in the data set with MOLM-14 cells (drug concentration 1.60E-08 M) it was 109.825 and 84.2418 and 85.8907 and 118.518 and 93.8319; in the data set with MOLM-14 cells (drug concentration 2.00E-06 M), 9.2521 and 10.1835 and 11.1012 and 14.0541 and 10.0041; in the data set on MOLM-14 cells (drug concentration 3.20E-09 M) it was 91.1619 and 67.352 and 96.5641 and 78.9913 and 73.6029; in the data set with MOLM-14 cells (drug concentration 4.00E-07 M), 67.2416 and 67.0208 and 59.4522 and 60.425 and 58.2103; in the data set on MOLM-14 cells (drug concentration 6.40E-10 M), 98.0682 and 96.9022 and 102.332 and 130.626 and 104.719. In addition, in the data set with MOLM-14 cells (drug concentration 8.00E-08 M), the “Cell viability, MOML-14” value is 92.8384 and 69.3183 and 103.532 and 88.8644 and 89.4508.
